Literature values as cited in patent US4657924A, “Nafazatrom as a lipoxygenase inhibitor” (priority 1983, dated 1987).

Assays:
cyclooxygenase = conditions: stated disadvantage; cited from earlier work
[1] = test system: synthesis of prostaglandins from arachidonic acid; conditions: comparison with nafazatrom; cited from earlier work

## CCCCCC#CCC#CCC#CCC#CCCCC(=O)O [5,8,11,14-eicosatetrainoic acid]
cyclooxygenase
  activity of known lipoxygenase inhibitors as cyclooxygenase inhibitors: either at the same time active as cyclooxygenase inhibitors or active only in very high concentrations

## COc1ccc2c(c1)c(CC(=O)O)c(C)n2C(=O)c1ccc(Cl)cc1 [indomethacin]
[1]
  action on the synthesis of prostaglandins from arachidonic acid: overall inhibiting action

## CC(Cc1ccc(O)c(O)c1)C(C)Cc1ccc(O)c(O)c1 (stereo not shown) [nordihydroguaiaretic acid]
cyclooxygenase
  activity of known lipoxygenase inhibitors as cyclooxygenase inhibitors: either at the same time active as cyclooxygenase inhibitors or active only in very high concentrations

## O=C1CCN(c2ccccc2)N1 [phenidone]
cyclooxygenase
  activity of known lipoxygenase inhibitors as cyclooxygenase inhibitors: either at the same time active as cyclooxygenase inhibitors or active only in very high concentrations
